Experimental data from paper PMC12684391, “Mechanistic insights into the monotherapy and combination potential of FEN1 inhibition in cancer therapy” (Nucleic Acids Research, 2025).

Key:
[1] = target: T1, FEN1(1-380)-6His (Homo sapiens, UniProt P39748); test: Surface plasmon resonance on immobilized FEN1; type: binding; conditions: SPR, 25°C, mean of n = 4 surfaces; for Kd: 1:1 Langmuir model; for residence time: read-out: τ (residence time)
T1 construct: FEN1(1-380)-6His was immobilized on a CM5 chip; made in house; host or cells: Escherichia coli
Experimental: The kinetic parameters of the interaction between FEN1 and small molecules were assessed by surface plasmon resonance (SPR). FEN1(1-380)-6His was immobilized on a CM5 chip (Series S, Cytiva, Uppsala, Sweden) via standard amine coupling procedure at 25°C. Prior to immobilization, the carboxymethylated surface of the CM5 chip was activated with 400 mM 1-ethyl-3-(3-dimethylaminopropyl)-carbodiimide and 100 mM N-hydroxysuccinimide for 7 min. FEN1 was diluted to 10 µg/ml in 10 mM Bis–Tris pH 6.50 and injected in the presence of 2 µM of an active site binder on the CM5 chip for 3 or 4 min resulting in immobilization levels between 1300 and 3100 response units (RU). The remaining activated carboxymethylated groups were blocked with a 7 min injection of 1 M ethanolamine pH 8.50. HBS-N pH 7.40 was used as the background buffer during immobilization.
All compounds were prediluted in DMSO, diluted 1:50 in running buffer (20 mM Tris–HCl pH 7.50, 100 mM KCl, 1 mM DTT, 5 mM MgCl2, 0.05% Tween-20, and 2% DMSO) and injected at 10 different concentrations using two-fold dilution series. A DMSO solvent correction (10 steps, 1.4%–2.8%) was performed to account for variations in bulk signal and to achieve high-quality data. Interaction analysis cycles consisted of a 150 s sample injection (30 μl/min; association phase) followed by 300 s of buffer flow (dissociation phase).
Experiments were performed on a Biacore 8K+ (Cytiva, Uppsala, Sweden) at 25°C and the interactions were evaluated using the Biacore Insight evaluation software (version 5.0). All sensorgrams were processed by first subtracting the signal of the control surface (reference spot) from the binding response, followed by subtraction of the buffer blank injection from the reaction spot (double referencing). All datasets were fitted to a simple 1:1 Langmuir interaction model to determine the kinetic rate constants (using as offset RI = const = 0 and for Rmax either global or local, if the surface generation was not complete between consecutive cycles). Reported kinetic parameters are mean values from four independent FEN1 surfaces (n = 4).

[2] = target: T2, FEN1 (1-380) FL-6His (Homo sapiens, UniProt P39748); test: Differential scanning fluorimetry; type: binding; conditions: compound 100 µM
T2 construct: FEN1(1-380)-6His was immobilized on a CM5 chip; made in house; host or cells: Escherichia coli
Experimental: A volume of 100 nl of each compound at stock concentration of 10 mM was dispensed into a 384-well skirted PCR Plate (MicroAmp™ Optical plate) using a D300e digital dispenser (Tecan). Wells were normalized such that each contained 1% (v/v) DMSO and final compound concentration of 100 µM.
FEN1 (1-380) FL-6His protein (1.25×) and protein 5× thermal shift dye (Thermo Fisher Scientific) were prepared separately in freshly prepared differential scanning fluorimetry (DSF) assay buffer (20 mM Tris–HCl pH 7.5, 100 mM potassium chloride, 5 mM magnesium chloride, and 1 mM dithiothreitol). Eight microliters of 1.25× Fen1 (10 µM) was added to the appropriate well, plate sealed with aluminium sealing film (Axygen), and centrifuged at 500 × g for 1 min before incubating for 30 min at 4°C. After the incubation period, the plate was centrifuged again at 500 × g for 1 min and 2 µl of 5× protein thermal shift dye was added. […] Fluorescence was measured using a Quantstudio pro7.0 qPCR machine (Thermo Fisher Scientific) using internal optical ×1 filter (470 ± 15 nm) for excitation and m3 filter (586 ± 10 nm) for emission.
Each experiment was run in quadruplicates and melting temperatures (Tm) calculated as the inflection point of the derivative function using the protein thermal shift software (Thermo Fisher Scientific). DeltaTm was calculated using the Tm of protein with 1% DMSO as reference.

[3] = test system: DLD-1 cells; test: Cell viability assay (AlamarBlue), 7 days; type: cell-based; conditions: Homo sapiens, 168 h, DLD-1 wild-type, N = 3
Experimental: Cells were seeded in 96-well plates and treated the day after seeding with a serial dilution of compounds in technical duplicates. After 7 days, viability was analyzed using the AlamarBlue reagent (BioRad). AlamarBlue was added in an amount equal to 10% of the volume in the well and after a 4–6 h incubation viability was determined by fluorescence analysis using a standard plate reader. Fluorescence was normalized to vehicle treated control for each cell line, and data were fitted in Genedata Screener to generate compound sensitivity curves and determine IC50 or EC50 (half maximal inhibitory/effective concentration) values as indicated.

[4] = test system: MMEJ (resection dependent reporter); test: Extrachromosomal MMEJ reporter assay, resection dependent, HEK-293; type: cell-based; conditions: Homo sapiens, HEK293, HEK-293, 24 h, read-out: MMEJ inhibition EC50
Experimental: MMEJ resection-independent and MMEJ resection-dependent reporter assays performed as previously described. In brief, HEK-293 cells were resuspended in supplemented SF nucleofection solution (Lonza) containing nanoluciferase DNA substrate and Firefly luciferase plasmid (Promega) at a ratio of 100 μl SF: 1500 ng nanoluciferase substrate: 1000 ng Firefly plasmid: ∼1.5 × 10^6 cells. Cells were electroporated and recovered into fresh media before seeding into a 96-well plate pre-dosed with compounds and DMSO control.
After 24 h, Firefly and NanoLuc levels were detected using the Nano-Glo® Dual-Luciferase® Reporter Assay system (Promega) as per the manufacturer’s instructions. NanoLuc luminescence (reporter) was normalized to Firefly luminescence (control) to determine substrate repair. Percentage repair was calculated relative to the DMSO control.

[5] = test system: HAP1 USP1KO cells; test: Cell viability assay (CTG), 7 days; type: cell-based; conditions: two independent USP1KO lines
Experimental: Cells were seeded in 150 μl of media in 96-well plates or in 70 μl of media in 384-well plates pre-dosed with compounds (8–10 points dose response) with a D300e digital dispenser (Tecan) and incubated for 24 h at 37°C and 5% CO2. Cell proliferation at the end of the assay (7 days) was measured using CTG (Promega, G9243). CTG luminescence was normalized to vehicle treated control for each cell line, and data were fitted with a nonlinear regression curve (four parameters) to generate compound sensitivity curves and determine IC50 or EC50 (half maximal inhibitory/effective concentration) values as indicated.

[6] = test system: HCT-116, NCI-H460, SUM149PT, MDA-MB-436 cells; test: Combination viability assay (CTG, Bliss synergy); type: cell-based; conditions: control in place of MSC778
Experimental: For combination analysis, cells were seeded in 70 μl of media in 384-well plates pre-dosed with compounds (5-point dose–response matrix) with a D300e digital dispenser (Tecan). Cell proliferation was determined after 7 days using CTG. Analysis was performed with Genedata Screener (Compound Synergy Extension) to determine Synergy scores (Bliss model), using a formulation whereby the Blissexcess is a continuous value and values higher than 2 are usually considered synergistic, and values between 0 and 2 are usually considered additive.

T1 sequence (P39748 whole entry): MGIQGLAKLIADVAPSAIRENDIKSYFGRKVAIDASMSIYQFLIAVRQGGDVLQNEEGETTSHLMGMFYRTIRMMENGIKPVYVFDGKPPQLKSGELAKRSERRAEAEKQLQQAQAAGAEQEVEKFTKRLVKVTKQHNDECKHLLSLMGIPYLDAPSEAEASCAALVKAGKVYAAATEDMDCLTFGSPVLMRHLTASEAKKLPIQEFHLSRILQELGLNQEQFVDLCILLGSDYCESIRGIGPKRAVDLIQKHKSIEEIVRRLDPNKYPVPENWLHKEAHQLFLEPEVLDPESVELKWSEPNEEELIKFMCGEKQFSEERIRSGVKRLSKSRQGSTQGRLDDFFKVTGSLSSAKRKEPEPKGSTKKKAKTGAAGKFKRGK
T2 sequence (P39748 whole entry): as above

Compound	Kd [1] [nM]	koff [1] [s⁻¹]	kon [1] [M⁻¹ s⁻¹]	residence time [1] [min]	Thermal stabilization of FEN1 (DSF) [2]	EC50 [3] [nM]	EC50 [4] [nM]	Sensitization of USP1KO cell lines compared to isogenic HAP1 WT cells [5] [fold]	Combination effects on viability with partner DDR inhibitors [6]
C[C@H](Oc1nn2c(c(O)c1=O)C(=O)N1CCOC[C@@H]1C2)c1ccc2ccc(Cl)cc2c1 [MSC778]	2.9	0.00052	180000	32	thermally stabilized FEN1	2300	840	3	–
C[C@@H](Oc1nn2c(c(O)c1=O)C(=O)N1CCOC[C@@H]1C2)c1ccc2ccc(Cl)cc2c1 [MSC781]	23	0.0034	150000	4.8	–	–	–	–	not observed
